Assay results taken from patent publication US4894458A, “Quinolonecarboxylic acid derivatives and their preparation” (Kyorin Pharmaceutical Co., Ltd., priority 1986, dated 1990).
Values after ≈ are worked out from the molar mass of the structure shown. Read-outs that look alike come from different tables or passages of the source.

Key:
[1] = system: gram-negative and gram-positive bacteria; settings: cited from earlier work
[2] = system: Alcaligenes faecalis 0114002; assay: In vitro antibacterial activity (aerobic bacteria), MIC; type: cell-based; settings: Alcaligenes faecalis, 0114002, aerobic; Gram -; 10^6 cells/ml
[3] = system: Bacillus subtilis PCI 219; assay: as above; type: cell-based; settings: PCI219
[4] = system: Morganella morganii IID 602; assay: as above; type: cell-based; settings: 10^6 cells/ml
Experimental: (§1) Minimal inhibitory concentrations (MICs) were determined in accordance with the method recommended by Japan Society of Chemotherapy.

P. mirabilis IID 994 = assay: as above; type: cell-based; settings: Proteus mirabilis, IID994, Gram -, 10^6 cells/ml
Experimental: as §1

[5] = system: Acinetobacter anitratus IID 876; assay: as above; type: cell-based; settings: 10^6 cells/ml
Experimental: as §1

S. epidermidis IID 866 = assay: as above; type: cell-based; settings: Staphylococcus epidermidis, IID866, Gram +, 10^6 cells/ml
Experimental: as §1

K. pneumoniae 1-220S = assay: as above; type: cell-based; settings: Klebsiella pneumoniae, 1220S, Gram -, 10^6 cells/ml
Experimental: as §1

[6] = system: Pseudomonas aeruginosa V-1; assay: as above; type: cell-based; settings: Gram -, 10^6 cells/ml
Experimental: as §1

[7] = system: Serratia marcescens IID 618; assay: as above; type: cell-based; settings: IID618, Gram -, 10^6 cells/ml
Experimental: as §1

[8] = system: S. aureus IID 670 (Terajima); assay: as above; type: cell-based; settings: Staphylococcus aureus, IID670, Gram +, 10^6 cells/ml
Experimental: as §1

[9] = system: Staphylococcus aureus 209 P; assay: as above; type: cell-based; settings: Gram +, 10^6 cells/ml
Experimental: as §1

[10] = system: Peptococcus magnus KY 017; assay: In vitro antibacterial activity (anaerobic bacteria), MIC; type: cell-based; settings: 10^6 cells/ml
Experimental: as §1

[11] = system: Bacteroides fragilis GM 7000; assay: as above; type: cell-based; settings: GM7000
C. ramosum = assay: as above; type: cell-based; settings: anaerobic, Gram +, 10^6 cells/ml
B. fragilis 25285 = assay: as above; type: cell-based; settings: Bacteroides fragilis
[12] = system: Yersinia enterocolitica IID 981; assay: microbe, parasite or virus in culture; type: cell-based; settings: IID981
[13] = system: B. thetaiotaomicron (0661); assay: In vitro antibacterial activity (anaerobic bacteria), MIC; type: cell-based; settings: anaerobic, Gram -, 10^6 cells/ml
[14] = system: Escherichia coli NIHJ JC-2; assay: In vitro antibacterial activity (aerobic bacteria), MIC; type: cell-based; settings: NIHJJC2, aerobic, Gram -, 10^6 cells/ml
[15] = system: Veillonella parvula KYA 10790; assay: In vitro antibacterial activity (anaerobic bacteria), MIC; type: cell-based; settings: KYA10790
B. fragilis 0558 = assay: as above; type: cell-based; settings: Bacteroides fragilis
P. aeruginosa IFO 12689 = assay: In vitro antibacterial activity (aerobic bacteria), MIC; type: cell-based; settings: Pseudomonas aeruginosa, IFO12689
[16] = system: Citrobacter freundii IID 976; assay: as above; type: cell-based
[17] = system: Salmonella enteritidis IID 604; assay: as above; type: cell-based; settings: Salmonella enterica
[18] = system: Proteus vulgaris IFO 3167; assay: as above; type: cell-based; settings: IFO3167, Gram -, 10^6 cells/ml
Experimental: as §1

E. coli ATCC 10536 = assay: as above; type: cell-based; settings: Escherichia coli, ATCC10536, Gram -, 10^6 cells/ml
Experimental: as §1

Shigella sonnei IID 969 = assay: as above; type: cell-based; settings: IID969, Gram -, 10^6 cells/ml
Experimental: as §1

[19] = system: Clostridium difficile I-E; assay: In vitro antibacterial activity (anaerobic bacteria), MIC; type: cell-based; settings: Clostridioides difficile; anaerobic; Gram +; 10^6 cells/ml; read-out: MIC
[20] = system: Propionibacterium acens 11828; assay: as above; type: cell-based; settings: anaerobic, Gram +, 10^6 cells/ml, read-out: MIC
[21] = system: Fusobacterium necrophorum S-45; assay: as above; type: cell-based; settings: S45, anaerobic, Gram -, 10^6 cells/ml, read-out: MIC
P. cepacia GIFU 518 = assay: In vitro antibacterial activity (aerobic bacteria), MIC; type: cell-based; settings: Burkholderia cepacia, GIFU518; aerobic; Gram -; 10^6 cells/ml; read-out: MIC
P. aeruginosa IID 1210 = assay: as above; type: cell-based; settings: Pseudomonas aeruginosa, IID1210, aerobic; Gram -; 10^6 cells/ml
F. varium KYA 8501 = assay: In vitro antibacterial activity (anaerobic bacteria), MIC; type: cell-based; settings: Fusobacterium varium, KYA8501; anaerobic; Gram -; 10^6 cells/ml; read-out: MIC
[22] = system: Klebsiella pneumoniae KY(GN)6445; assay: In vitro antibacterial activity (aerobic bacteria), MIC; type: cell-based
[23] = system: Enterobacter cloacae IID 977; assay: as above; type: cell-based; settings: IID977
B. distasonis 8503 = assay: In vitro antibacterial activity (anaerobic bacteria), MIC; type: cell-based; settings: Parabacteroides distasonis, Gram -, 10^6 cells/ml, read-out: MIC
[24] = system: Eubacterium lentum GAI 5242; assay: as above; type: cell-based; settings: Eggerthella lenta, GAI5242
P. maltophilia GIFU 2491 = assay: In vitro antibacterial activity (aerobic bacteria), MIC; type: cell-based; settings: Stenotrophomonas maltophilia, GIFU2491; aerobic; Gram -; 10^6 cells/ml; read-out: MIC
[25] = system: Peptostreptococcus anaerobius KYA 27337; assay: In vitro antibacterial activity (anaerobic bacteria), MIC; type: cell-based; settings: KYA27337, anaerobic, Gram +, 10^6 cells/ml, read-out: MIC
C. perfringens KYA 13123 = assay: microbe, parasite or virus in culture; type: cell-based; settings: Clostridium perfringens, KYA13123
Pst micros UPI 5464-1 = assay: microbe, parasite or virus in culture; type: cell-based; settings: anaerobic; Gram +; 10^6 cells/ml
[26] = Morganella morganii, IID602, Gram -, read-out: MIC
[27] = Acinetobacter calcoaceticus, IID876, Gram -, read-out: MIC
[28] = Pseudomonas aeruginosa, V1, aerobic, read-out: MIC
[29] = anaerobic, Gram -, 10^6 cells/ml, read-out: MIC

O=C(O)c1cn(C2CC2)c2cc(N3CCNCC3)c(F)cc2c1=O [CPFX, ciprofloxacin, reference compound]
antibacterial activity compared with norfloxacin [1]: stronger antibacterial activity than norfloxacin
antibacterial potency against gram-positive bacteria ([1]; compared with gram-negative bacteria): considerably inferior to that against gram-negative bacteria
MIC [2]: 0.2 µg/mL (≈ 0.604 µM)
MIC [3]: 0.05 µg/mL (≈ 0.151 µM)
MIC ([4]; Gram -): 0.025 µg/mL (≈ 0.0754 µM)
MIC [4, 26]: 0.05 µg/mL (≈ 0.151 µM)
MIC (P. mirabilis IID 994): 0.025 µg/mL (≈ 0.0754 µM)
MIC [5, 27]: 0.1 µg/mL (≈ 0.302 µM)
MIC ([5]; Gram -): 0.20 µg/mL (≈ 0.604 µM)
MIC (S. epidermidis IID 866): 0.2 µg/mL (≈ 0.604 µM)
MIC (K. pneumoniae 1-220S): 0.05 µg/mL (≈ 0.151 µM)
MIC [6, 28]: 0.05 µg/mL (≈ 0.151 µM)
MIC ([6]; aerobic): 0.10 µg/mL (≈ 0.302 µM)
MIC [7]: 0.05 µg/mL (≈ 0.151 µM)
MIC [8]: 0.2 µg/mL (≈ 0.604 µM)
MIC [9]: 0.2 µg/mL (≈ 0.604 µM)
MIC ([10]; Gram +): 0.20 µg/mL (≈ 0.604 µM)
MIC [11]: 6.25 µg/mL (≈ 18.9 µM)
MIC (C. ramosum): 6.25 µg/mL (≈ 18.9 µM)
MIC (B. fragilis 25285): 3.13 µg/mL (≈ 9.45 µM)
MIC [12]: 0.05 µg/mL (≈ 0.151 µM)
MIC [13]: 25 µg/mL (≈ 75.4 µM)
MIC [14]: ≤ 0.0063 µg/mL
MIC [15]: 0.2 µg/mL (≈ 0.604 µM)
MIC (B. fragilis 0558): 3.13 µg/mL (≈ 9.45 µM)
MIC (P. aeruginosa IFO 12689): 0.2 µg/mL (≈ 0.604 µM)
MIC ([16]; aerobic, Gram -, 10^6 cells/ml): 0.0063 µg/mL (≈ 0.019 µM)

CCn1cc(C(=O)O)c(=O)c2cc(F)c(N3CCC(N)C3)c(C)c21 (stereo not shown) [Exp. 25, 7-(3-Amino-1-pyrrolidinyl)-1-ethyl-6-fluoro-1,4-dihydro-8-methyl-4-oxo-3-quinolinecarboxylic acid]
MIC [17]: 0.05 µg/mL (≈ 0.15 µM)
MIC [2]: 0.78 µg/mL (≈ 2.34 µM)
MIC [3]: 0.1 µg/mL (≈ 0.3 µM)
MIC [4, 26]: 0.2 µg/mL (≈ 0.6 µM)
MIC (P. mirabilis IID 994): 0.05 µg/mL (≈ 0.15 µM)
MIC [5, 27]: 0.78 µg/mL (≈ 2.34 µM)
MIC [18]: 0.0125 µg/mL (≈ 0.0375 µM)
MIC (S. epidermidis IID 866): 0.2 µg/mL (≈ 0.6 µM)
MIC (K. pneumoniae 1-220S): 0.1 µg/mL (≈ 0.3 µM)
MIC [6, 28]: 0.39 µg/mL (≈ 1.17 µM)
MIC [7]: 0.05 µg/mL (≈ 0.15 µM)
MIC [8]: 0.2 µg/mL (≈ 0.6 µM)
MIC [9]: 0.2 µg/mL (≈ 0.6 µM)
MIC (E. coli ATCC 10536): 0.025 µg/mL (≈ 0.075 µM)
MIC (Shigella sonnei IID 969): 0.05 µg/mL (≈ 0.15 µM)
MIC [19]: 6.25 µg/mL (≈ 18.7 µM)
MIC ([10]; Finegoldia magna, KY017, Gram +, read-out: MIC): 0.39 µg/mL (≈ 1.17 µM)
MIC [20]: 12.5 µg/mL (≈ 37.5 µM)
MIC [21]: 1.56 µg/mL (≈ 4.68 µM)
MIC (P. cepacia GIFU 518): 1.56 µg/mL (≈ 4.68 µM)
MIC [11]: 3.13 µg/mL (≈ 9.39 µM)
MIC (P. aeruginosa IID 1210): 0.78 µg/mL (≈ 2.34 µM)
MIC (C. ramosum; Thomasclavelia ramosa, read-out: MIC): 12.5 µg/mL (≈ 37.5 µM)
MIC (F. varium KYA 8501): 6.25 µg/mL (≈ 18.7 µM)
MIC [22]: 0.1 µg/mL (≈ 0.3 µM)
MIC (B. fragilis 25285; [29]): 1.56 µg/mL (≈ 4.68 µM)
MIC [12]: 0.1 µg/mL (≈ 0.3 µM)
MIC ([13]; Bacteroides thetaiotaomicron, read-out: MIC): 6.25 µg/mL (≈ 18.7 µM)
MIC [23]: 0.1 µg/mL (≈ 0.3 µM)
MIC (B. distasonis 8503): 6.25 µg/mL (≈ 18.7 µM)
MIC [24]: 0.78 µg/mL (≈ 2.34 µM)
MIC (P. maltophilia GIFU 2491): 1.56 µg/mL (≈ 4.68 µM)
MIC [25]: 1.56 µg/mL (≈ 4.68 µM)
MIC [14]: 0.0125 µg/mL (≈ 0.0375 µM)
MIC [15]: 0.39 µg/mL (≈ 1.17 µM)
MIC (B. fragilis 0558; [29]): 1.56 µg/mL (≈ 4.68 µM)
MIC (C. perfringens KYA 13123): 0.78 µg/mL (≈ 2.34 µM)
MIC (P. aeruginosa IFO 12689; aerobic, Gram -, 10^6 cells/ml, read-out: MIC): 1.56 µg/mL (≈ 4.68 µM)
MIC ([16]; Citrobacter freundii, IID976): 0.05 µg/mL (≈ 0.15 µM)
MIC (Pst micros UPI 5464-1): 0.39 µg/mL (≈ 1.17 µM)
